Experimental data as given in patent US9205129B2, “Methods of treatment and screening assays for HIF-1α regulation” (University of Rochester, priority 2009, dated 2015).
Peptide text beside a SMILES is read from it. * marks the point of attachment. Cbz = O=C(OCc1ccccc1)*

Tests used:
[1] = tested on: human HIF-1α (HIF-V5-6×His); assay: Western blot of human HIF-1α fusion expressed in N2A line; format: cell-based; settings: human HIF-1α fusion in N2A line treated with MG132 (FIG. 7B)
Protocol: (§1) FIGS. 7A-C illustrate in vitro characterization and purification of HIF-1α cleavage product. […] Effects of MKP overexpression were tested by co-expressing either empty plasmid (pSG5) or vector expressing wildtype MKP-1 (pSG5-MKPwt; compare lanes 1 vs 2 & 3). Parallel samples were also treated with the proteosome inhibitor MG132 to determine whether sub fragments could be stabilized. Full-length and c-terminal fragments were identified using the carboxy-terminal V5 tag. FIG. 7B depicts optimization of expression conditions for human HIF-V5-6×His. Full-length and the proteolytic cleavage form of human HIF-1α are observed when expressed in the mouse N2A line. Other bands are shown as present in both samples and are cross reactive contaminants with V5 antibody. FIG. 7C illustrates affinity purification of the c-terminal HIF-1α fragment using the 6×His tag resin. N2A cells were transfected with the empty (pUB6-MCS) or HIF-expressing plasmids (pUb6-hHIF) and exposed to MG132 to induce fragment accumulation.
The addition of MKPwt reduced overall levels of both full-length and C-terminal fragments. […] Bands correlating to full length (approximately 110 kDa) and the c-terminal fragment (running at approximately 48 kDa) were isolated from polyacrylamide gels and subjected to LC-MS/MS. […]

HIF-1α (myc-HIF-V5) = assay: Cycloheximide pulse-chase / Western blot of myc-HIF-V5 in transfected HN33 cells; format: cell-based, mouse
Protocol: Cell lysates were obtained by rinsing monolayers with ice-cold PBS×1 followed by the addition of RIPA buffer containing both protease and phosphatase inhibitor cocktails (Sigma-Aldrich, St. Louis, Mo.). Samples were boiled in Laemmeli buffer and electrophoresed under reducing conditions on polyacrylamide gels. Proteins were transferred to PVDF membranes and blocked in TBS-T ([…] Tris-HCl, pH 8.0, 0.9% NaCl, and 0.1% Tween-20™) containing 5% non-fat dry milk for 1 h at room temperature. Antibodies used in this study included: NeuN (Chemicon, Temecula, Calif.; 1:500), GFP, HIF-1α (Novus Biologicals, NB-100-449 and NB-100-131, Littleton, Colo.), TUJ1 & MKP-1 (Santa Cruz Biologicals, San Diego, Calif.; 1:500) Caspase 9, cleaved caspase-3, -9, -12, and cleaved PARP (CST, Danvers, Mass.). Blots were exposed to HRP conjugated secondary antibodies (Santa Cruz Biologicals, CA) prior to chemiluminescent detection (Amersham). To resolve molecular weight changes in HIF-1α, crude lysates were run on 15% PAGE gels.
The cDNA for mouse HIF-1α was generated by RT-PCR using total cDNA from HN33.11 cultures using Superscript III according to the manufacturer's instructions using the random hexamer method (Invitrogen, Carlsbad, Calif.). PCR was performed using forward (5′-[…]-3′ (SEQ ID NO:1)) and reverse (5′-TCAG-[…]-3′ (SEQ ID NO:2)) primers as described (Chun et al., “A New HIF-1 Alpha Variant Induced by Zinc Ion Suppresses HIF-1-Mediated Hypoxic Responses,” J. Cell Sci. 114:4051-61 (2001), which is hereby incorporated by reference in its entirety), and the cDNA was sub-cloned to pCDNA3.1 and sequenced in its entirety. This sequence was sub-cloned by PCR using high fidelity polymerase and both the forward primer (5′-GCGGGATCCA […] GAA-3′ (SEQ ID NO:3)) containing a BamHI site followed by a Kozak consensus sequence and the Myc epitope tag and the reverse primer (5′-ggggcggccgcTAA CTTGATCCAAAGC […]-3′ (SEQ ID NO:4)) containing the Not I site allowing in frame ligation with the V5-6×His tag in pUB6-V5-6×HIS (Invitrogen). […]

[2] = tested on: mouse HIF-1α (Myc-HIF-6×His-V5); assay: Western blot of V5-tagged mouse HIF-1α expressed in N2A neuroblastoma line; format: cell-based; settings: N2A cells, 24 hours post-transfection (FIG. 7A)
Protocol: as §1
Cell lysates were obtained by rinsing monolayers with ice-cold PBS×1 followed by the addition of RIPA buffer containing both protease and phosphatase inhibitor cocktails (Sigma-Aldrich, St. Louis, Mo.). Samples were boiled in Laemmeli buffer and electrophoresed under reducing conditions on polyacrylamide gels. […]

HIF-1α = settings: effect of lambda phosphatase, compared with MEK inhibitor; cited from earlier work

Row | Structure (SMILES) | formation of c-terminal HIF-1α fragment [1] | induction of LMW-HIF-1α species (HIF-1α (myc-HIF-V5); FIG. 4D legend, HN33 lysates, CHX pulse-chase and MG132) | effect on MKP-1 mediated destabilization of HIF-1α (HIF-1α (myc-HIF-V5); HN33 cells transfected with dual-tagged vector, normoxic, cycloheximide pulse chase (FIG. 4D)) | accumulation of intermediate myc-HIF-V5 species (HIF-1α (myc-HIF-V5); HN33 cells, independent of MKP-1 levels (FIG. 4D, double asterisk)) | detection of V5-reactive C-terminal fragment of HIF-1α [2] | reduction of HIF-1α complex doublet to a single 103 kDa band (HIF-1α)
1 | CC(C)C[C@@H](C=O)NC(=O)[C@H](CC(C)C)NC(=O)[C@H](CC(C)C)NC(=O)OCc1ccccc1 [MG132] (Cbz-Leu-Leu-Leu-aldehyde) | produced the expected c-terminal HIF-1α fragment | inducing several LMW-HIF-1α species | negate the destabilizing effect of MKP-1 | enhanced the accumulation | detected only after treatment | 
2 | COc1cccc(-c2cc(=O)c3ccccc3o2)c1N [PD98059] |  |  |  |  |  | effect mimicked
